Assay results: patent publication US5922697A, “Compounds, compositions and methods for inhibiting the binding of proteins containing an SH2 domain to cognate phosphorylated proteins” (Warner-Lambert Company, priority 1998, dated 1999)
Where two headings read alike, the source gives them in different places.

Key:
[1] = biological target: T1, Grb2 SH2-GST binding to PDGF receptor kinase domain (Homo sapiens, UniProt P62993); experiment: Inhibition of activated PDGF receptor binding to 35S-SH2 domains: Grb2 SH2-GST; settings: 35S-Grb2 SH2-GST, immobilized PDGF receptor kinase domain, pH 7.5, room temperature, 30 minutes
T1 construct: S-X-SH2-GST (X=Src, Ab1, Grb2, p85-N, p85-C, Syp-N, and PLCy-C domains)
T1 sequence (P62993 60-152 limits assumed): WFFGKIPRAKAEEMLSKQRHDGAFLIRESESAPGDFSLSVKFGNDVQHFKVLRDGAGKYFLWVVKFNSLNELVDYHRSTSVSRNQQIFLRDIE

[2] = biological target: T2, Syp(N) SH2-GST binding to PDGF receptor kinase domain (Homo sapiens, UniProt Q06124); experiment: Inhibition of activated PDGF receptor binding to 35S-SH2 domains: Syp(N) SH2-GST; settings: 35S-Syp(N) SH2-GST, immobilized PDGF receptor kinase domain, pH 7.5, room temperature, 30 minutes
T2 construct: S-X-SH2-GST (X=Src, Ab1, Grb2, p85-N, p85-C, Syp-N, and PLCy-C domains)
T2 sequence (Q06124 6-102): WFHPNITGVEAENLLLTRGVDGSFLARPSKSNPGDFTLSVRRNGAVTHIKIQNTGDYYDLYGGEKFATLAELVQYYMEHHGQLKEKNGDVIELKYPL

[3] = biological target: T3, p85(C) SH2-GST binding to PDGF receptor kinase domain (Homo sapiens, UniProt P27986); experiment: Inhibition of activated PDGF receptor binding to 35S-SH2 domains: p85(C) SH2-GST; settings: 35S-p85(C) SH2-GST, immobilized PDGF receptor kinase domain, pH 7.5, room temperature, 30 minutes
T3 construct: S-X-SH2-GST (X=Src, Ab1, Grb2, p85-N, p85-C, Syp-N, and PLCy-C domains)
T3 sequence (P27986 624-718 limits assumed): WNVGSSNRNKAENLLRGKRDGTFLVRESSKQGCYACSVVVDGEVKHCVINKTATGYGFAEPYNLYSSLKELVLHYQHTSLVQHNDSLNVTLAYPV

[4] = biological target: T4, Abl SH2-GST binding to PDGF receptor kinase domain (Homo sapiens, UniProt P00519); experiment: Inhibition of activated PDGF receptor binding to 35S-SH2 domains: Abl SH2-GST
T4 construct: S-X-SH2-GST (X=Src, Ab1, Grb2, p85-N, p85-C, Syp-N, and PLCy-C domains)
T4 sequence (P00519 127-217 limits assumed): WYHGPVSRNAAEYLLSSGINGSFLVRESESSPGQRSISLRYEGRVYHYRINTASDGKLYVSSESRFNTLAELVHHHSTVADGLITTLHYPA
Method: Inhibition of Activated PDGF Receptor Binding to ^35 S-SH2 Domains
The assay was conducted at room temperature for 30 minutes while continuously inverting the plate. The resultant SH2-GST-PDGF receptor kinase complex was separated from excess ^35 S-SH2-GST protein by vacuum filtration and the amount of bound SH2-GST was determined by scintillation counting. Results are expressed as IC50 values and/or % inhibition at specified concentrations in Table 2 below.

[5] = biological target: T5, PLCγ(C) SH2-GST binding to PDGF receptor kinase domain (Homo sapiens, UniProt P19174); experiment: Inhibition of activated PDGF receptor binding to 35S-SH2 domains: PLCγ(C) SH2-GST; settings: 35S-PLCγ(C) SH2-GST, immobilized PDGF receptor kinase domain, pH 7.5, room temperature, 30 minutes
T5 construct: S-X-SH2-GST (X=Src, Ab1, Grb2, p85-N, p85-C, Syp-N, and PLCy-C domains)
T5 sequence (P19174 668-756 limits assumed): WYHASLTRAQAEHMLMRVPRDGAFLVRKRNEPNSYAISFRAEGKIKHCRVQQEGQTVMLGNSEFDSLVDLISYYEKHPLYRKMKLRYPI

Swiss 3T3 cells = experiment: Inhibition of DNA synthesis as monitored by 3H-thymidine uptake; type: cell-based; settings: Swiss 3T3 cells stimulated with growth factor (PDGFbb or Fetal Bovine Serum), 24 hours; compound concentration not given
Method: Inhibition of DNA Synthesis as Monitored by ^3 H-Thymidine Uptake
DNA synthesis occurs when a cell is exposed to Platelet Derived Growth Factor (PDGF). For PDGF-induced DNA synthesis to occur, c-SRC or another member of the SRC gene family is required. The ability of the SRC SH2 inhibitors of the present invention to block PDGF-stimulated DNA synthesis can be assessed using the protocol set forth below.
Swiss 3T3 cells were grown in 12-well plates for 3 days to approximately 50% confluency. The growth media was removed and replaced with 1.0 mL/well of assay buffer (Dulbecco's Modified Eagle Medium containing 0.2% Bovine Serum Albumin), and incubated for 24 hours to arrest growth.
Test compounds (5 μL) were add at 100 times their final concentration. Methyl sulfoxide was used as a control and levels in all wells kept under 1.0% of DMSO. Cells were then stimulated with growth factor (PDGFbb or Fetal Bovine Serum), and allowed to incubate another 24 hours.
During the final 2 hours of treatment, 5 uL of 0.1 μCi/μL ^3 H-thymidine was added to each well (final=0.5 μCi/well)
After incubation the medium was removed by aspiration, and each well was washed twice with ice-cold phosphate buffered saline (0.5 mL/wash). 0.5 mL ice-cold 5% trichloroacetic acid was added to each well and incubated on ice for a minimum 10 minutes. The trichloroacetic acid solution was removed and each well was washed twice with 0.5 mL ice-cold trichloroacetic acid, and then once with ice-cold water (0.5 mL). 0.5 mL of 2% Sodium Dodecyl Sulfate was added to each well to solubilize the cells and allowed to incubate at room temperature for 10-15 minutes. The solubilized cells were transfered to 20 mL scintillation vials. Each well was washed with 0.5 mL of water and combined with the corresponding scintillation vial. 10 mL of Ready-Gel scintillation cocktail was added to each vial and the vials were then counted in a scintillation counter. Results are shown as percent of ^3 H-thymidine uptake relative to control in Table 4 below.

Abl SH2 = biological target: T6, Abl SH2 (Homo sapiens, UniProt P00519); experiment: Inhibition of 125I-phosphopeptide binding to immobilized Abl SH2; settings: competitive 125I-phosphopeptide displacement, GST-Abl SH2 fusion protein, pH 7.5, room temperature, 20 minutes
T6 construct: glutathione-S-transferase(GST)-Abl SH2 fusion protein
T6 sequence (P00519 127-217 limits assumed): T4 sequence (P00519 127-217 limits assumed)
Method: The binding affinities of compounds of the present invention to Abl SH2 was determined using a competitive radiolabeled phosphopeptide displacement assay. […] Binding was performed at room temperature for 20 minutes while continuously inverting the plate.

Src SH2 = biological target: T7, Src SH2 (Homo sapiens, UniProt P12931); experiment: Inhibition of 125I-phosphopeptide binding to immobilized Src SH2; settings: competitive 125I-phosphopeptide displacement, GST-Src SH2 fusion protein, pH 7.5, room temperature, 20 minutes
T7 construct: glutathione-S-transferase(GST)-Src SH2 fusion protein
T7 sequence (P12931 151-248 limits assumed): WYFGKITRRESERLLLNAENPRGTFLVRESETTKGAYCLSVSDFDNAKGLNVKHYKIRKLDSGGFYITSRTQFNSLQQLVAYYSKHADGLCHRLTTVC
Method: The binding affinities of compounds of the present invention to Src SH2 was determined using a competitive radiolabeled phosphopeptide displacement assay.
Binding was performed at room temperature for 20 minutes while continuously inverting the plate. […] Results are expressed as IC50 values in Table 1 below.

[6] = read-out: IC50, Abl SH2 Binding
[7] = read-out: IC50, SRC SH2 Binding

| SMILES | IC50 (Abl SH2; IC50, Abl SH2 Binding) [µM] | IC50 (Src SH2; IC50, SRC SH2 Binding) [µM] | further results |
| --- | --- | --- | --- |
| CC(=O)N[C@@H](Cc1ccc(OP(=O)(O)O)cc1)C(=O)NC(C)c1ccc(OCC2CCCCC2)c(C(N)=O)c1 (mixture of isomers) [Example 51, Phosphoric acid mono-(4-{(S)-2-acetylamino-2-[(RS)-1-(3-carbamoyl-4-cyclohexylmethoxy-phenyl)-ethylcarbamoyl]-ethyl}-phenyl) ester] |  |  | IC50 [1]: ~100 µM; IC50 [2]: ~100 µM; IC50 [3]: > 100 µM; IC50 [4]: 12.1 µM; IC50 [5]: > 100 µM |
| CC(=O)N[C@@H](Cc1ccc(C(F)(F)P(=O)(O)O)cc1)C(=O)NC(C)c1ccc(OCC2CCCCC2)c(C(N)=O)c1 (single isomer, unassigned) [Example 63a, [S-(R*,R*)]- or [S-(R*,S*)]-[(4-{2-Acetylamino-2-[1-(3-carbamoyl-4-cyclohexylmethoxy-phenyl)-ethylcarbamoyl]-ethyl]-phenyl)-difluoro-methyl]-phosphonic acid] |  |  | 3H-Thymidine Uptake, % Uptake Relative to Control (Swiss 3T3 cells): 73%; IC50 (Abl SH2; [6]): 2 µM; IC50 (Src SH2; [7]): 0.3 µM |
| CC(=O)N[C@@H](Cc1ccc(C(F)(F)P(=O)(O)OCOC(=O)C(C)(C)C)cc1)C(=O)NC(C)c1ccc(OCC2CCCCC2)c(C(N)=O)c1 (single isomer, unassigned) [Example 77, [S-(R*,R*)]- or [S-(R*,S*)]-2,2-Dimethyl-propionic acid {[(4-{2-Acetylamino-2-[1-(3-carbamoyl-4-cyclohexylmethoxy-phenyl)-ethylcarbamoyl]-ethyl}-phenyl)-difluoro-methyl} hydroxy-phosphinoyloxymethyl ester] |  |  | 3H-Thymidine Uptake, % Uptake Relative to Control (Swiss 3T3 cells): 34% |
| CC(=O)N[C@@H](Cc1ccc(OP(=O)(O)O)cc1)C(=O)N[C@@H](CCC(=O)O)C(=O)N(C)CCCC1CCCCC1 [Example 1, [S-(R*,R*)]-4-[2-Acetylamino-3-(4-phosphonooxy-phenyl)-propionylamino]-4-[(3-cyclohexyl-propyl)-methylcarbamoyl]-butyric acid] |  |  | IC50 [1]: > 100 µM; IC50 [2]: > 100 µM; IC50 [3]: > 100 µM; IC50 [5]: > 100 µM |
| CC(=O)N[C@@H](Cc1ccc(C(F)(F)P(=O)(O)O)cc1)C(=O)N[C@@H](CCC(=O)O)C(=O)N(C)CCCC1CCCCC1 [Example 5, [S-(R*,R*)]-4-{2-Acetylamino-3-[4-(difluoro-phosphonomethyl)-phenyl]-propionylamino}-4-[(3-cyclohexylpropyl)-methyl-carbamoyl]-butyric acid] |  |  | IC50 [1]: > 100 µM; IC50 [2]: > 100 µM; IC50 [3]: > 100 µM; IC50 [5]: > 100 µM |
| CC[C@H](NC(=O)[C@H](Cc1ccc(C(F)(F)P(=O)(O)OCOC(=O)C(C)(C)C)cc1)NC(C)=O)C(=O)N(C)CCCC1CCCCC1 [Example 55, [S-(R*,R*)]-2,2-Dimethyl-propionic acid {[4-(2-acetylamino-2-{1-[(3-cyclohexyl-propyl)-methyl-carbamoyl]-propylcarbamoyl}-ethyl)-phenyl]-difluoro-methyl}-hydroxy-phosphinoyloxymethyl ester] |  |  | 3H-Thymidine Uptake, % Uptake Relative to Control (Swiss 3T3 cells): 61%; IC50 (Abl SH2; [6]): > 100 µM; IC50 (Src SH2; [7]): > 100 µM |
| CCC(CC)(NC(=O)[C@H](Cc1ccc(OP(=O)(O)O)cc1)NC(C)=O)C(=O)NCCCc1ccccc1 [Example 57, (S)-Phosphoric acid mono-(4-{2-acetylamino-2-[1-ethyl-1-(3-phenyl-propylcarbamoyl)-propylcarbamoyl]-ethyl}-phenyl) ester] | 20 | 33 |  |
| CC(=O)N[C@@H](Cc1ccc(OP(=O)(O)O)cc1)C(=O)N[C@H](C(=O)NCCCc1ccccc1)C(C)O (stereo partly drawn) [Example 58, [S-(R*,R*)]-Phosphoric acid mono-(4-{2-acetylamino-2-[2-hydroxy-1-(3-phenyl-propylcarbamoyl)-propylcarbamoyl]-ethyl}-phenyl) ester] | ~60 | 21 |  |
| CN(C)C(=O)N[C@@H](Cc1ccc(OP(=O)(O)O)cc1)C(=O)N[C@@H](CCC(=O)O)C(=O)N(C)CCCC1CCCCC1 [Example 59, [S-(R*,R*)]-4-[(3-Cyclohexyl-propyl)-methyl-carbamoyl]-4-[2-(3,3-dimethyl-ureido)-3-(4-phosphonooxy-phenyl)-propionylaminol-butyric acid] | 4.5 | 1.1 |  |
| CN(CCCC1CCCCC1)C(=O)[C@H](CCC(=O)O)NC(=O)[C@H](Cc1ccc(OP(=O)(O)O)cc1)NS(=O)(=O)N(C)C [Example 60, 5-[(3-cyclohexylpropyl)methylamino]-4-[[2-[[(dimethylamino)-sulfonyl]amino]-1-oxo-3-[4-(phosphonooxy)phenyl]propyl]amino]-5-oxo-pentanoic acid] | 9.7 | 1.9 |  |
| CN(CCCC1CCCCC1)C(=O)[C@H](CCC(=O)O)NC(=O)NCc1ccc(OP(=O)(O)O)cc1 [Example 61, (S)-4-[(3-Cyclohexyl-propyl)--methyl-carbamoyl]-4-[3-(4-phosphonooxy-benzyl)-ureido]-butyric acid] | ~100 | 16 |  |
| CN(CCCC1CCCCC1)C(=O)[C@H](CCC(=O)O)NC(=O)c1ccc(OP(=O)(O)O)cc1 [Example 62, (S)-4-[(3-Cyclohexyl-propyl)-methyl-carbamoyl]-4-(4-phosphonooxy-benzoylamino)-butyric acid] | 44 | 8.3 |  |
| CC(=O)N[C@@H](Cc1ccc(OP(=O)(O)O)cc1)C(=O)NCc1ccc(OCC2CCCCC2)c(C(=O)NO)c1 [Example 70, (S)-Phosphoric acid mono-{4-[2-acetylamino-2-(4-cyclohexylmethoxy-3-hydroxycarbamoyl-benzylcarbamoyl)-ethyl]-phenyl} ester] | 16 | 24 |  |
| CCc1ccccc1COc1ccc(CNC(=O)[C@H](Cc2ccc(OP(=O)(O)O)cc2)NC(C)=O)cc1C(N)=O [Example 72, (S)-Phosphoric acid mono-(4-{2-acetylamino-2-[3-carbamoyl-4-(2-ethyl-benzyloxy)-benzylcarbamoyl]-ethyl}-phenyl) ester] | 28 | 6.2 |  |
| NC(=O)c1cc(CNC(=O)Nc2ccc(OP(=O)(O)O)cc2)ccc1OCC1CCCCC1 [Example 74, Phosphoric acid mono-{4-[3-(3-carbamoyl-4-cyclohexylmethoxy-benzyl)-ureido]-phenyl} ester] | > 100 | 20 |  |
| NC(=O)c1cc(CNC(=O)NCc2ccc(OP(=O)(O)O)cc2)ccc1OCC1CCCCC1 [Example 76, Phosphoric acid mono-{4-[3-(3-carbamoyl-4-cyclohexylmethoxy-benzyl)-ureidomethyl]-phenyl} ester] | > 100 | 34 |  |
